Data as given in patent US20220340849A1, “BRAIN-CHIP MODELING NEURODEGENERATION AND NEUROINFLAMMATION IN PARKINSON'S DISEASE” (EMULATE, INC., priority 2019, published 2022).

Legend:
[1] = system: Blood-Brain Barrier of the Brain-Chip; experiment: BBB permeability to 3 kDa dextran in the TNF-α treated Brain-Chip; format: cell-based, human
Protocol: To directly measure how BBB permeability changed over time in response to TNFα, the transport of 3-kDa Cascade Blue dextran was evaluated across the BBB. Fluorescent dextran molecule was introduced in the vascular channel. After 24 hrs and 48 hrs of exposure, the amount of fluorescent dextran collected in the Brain-side was measured.
(§1) TNF-α treatment. To mimic the inflammatory condition, cells were treated on either brain or vascular channel with TNF-α (Tumor Necrosis Factor-α, R&D Systems; 210-TA). The treatment was initiated after the formation of a confluent monolayer at ˜5 days in culture. Cells were further incubated in a culturing medium, including TNF-α (100 ng/ml) up to 48 hours.
Permeability Assays, e.g., evaluate the establishment and integrity of the barrier. Apparent permeability (Papp) of the barrier was calculated by following a previously described method^81. Briefly, 100 μg mL^−1 (0.1 mg/mL) of dextran (3 kDa, e.g. Cascade Blue) and/or 20 μg mL^−1 of Lucifer (0.5 kDa) tracers were dosed (flowed) through the vascular channels for 24 hrs. After 24 hrs, effluent from both channels was sampled to determine the dye's concentration (amount) that had diffused through the membrane. Concentration of the dextran and Lucifer tracers in the outlet samples from both vascular and brain channels was determined by using BioTek (BioTek Instruments, Inc., Winooski, Vt., USA). […]
Here, SA is the surface area of sections of the channels that overlap (0.17 cm^2), QR and QD are the fluid flow rates in the dosing and receiving channels respectively, in units of cm^3/s, CR,0 and CD,0 are the recovered concentrations in the dosing and receiving channels respectively, in any consistent units. IgG permeability was also evaluated after dosing the vascular channel and measuring the IgG content on the brain channel. Detection and quantitation of serum immunoglobulin G (IgG1; Abcam) was performed using the ELISA kit (Abcam), after 24 hrs of perfusion.

[2] = system: neurons, astrocytes and microglia in the brain channel of the Brain-Chip; format: cell-based, human
Protocol: Neuroinflammation incorporates a broad spectrum of complex cellular responses that often contribute to the pathogenesis and progression of various neurological disorders. To study the effects of neuroinflammatory specific signals on the Brain-Chip, TNF-α was perfused within the brain channel at a pathophysiological concentration of 100 ng/mL (FIG. 36A and FIG. 35). […] In addition, excessive TNF-α levels have been reported to have an inhibitory effect on glutamate transporters, resulting in increased glutamate concentration in the CNS parenchyma, linking the central inflammatory response to glutamate-mediated toxicity. To test this hypothesis in this system, secreted glutamate levels were measured by enzyme-linked immunosorbent assay (ELISA).
In one embodiment, a model of neuroinflammation was provided by treating cells as a neurovascular unit (brain side) with TNF-alpha added to the brain channel. TNFα, was previously reported to mediate neuroinflammation and detected in patients with neurological. disorders. On days 0 and 1, cells were seeded on the top and bottom channel of one embodiment of a Brain-Chip, respectively. The Brain-Chip is then allowed to mature under flow conditions for 4 more days and on day 5, cells on the brain side are treated with TNFα, for 48 hrs. During exposure, effluent is collected, and on the last day of the experiment, cells in chips may be imaged, stained for immunohistochemistry and imaged. In some embodiments, cells are lysed for transcriptomic analysis. Thus, modeling neuroinflammation comprises Brain chips and methods of use where TNF-a and/or other inflammatory compounds are added to the Brain channel. In some embodiments, such neuroinflamed brain chips are used in methods for developing treatments in addition for testing compounds for efficacy and safety.
as §1
Morphological analysis. Immunocytochemistry, including immunofluorescence microscopy, was conducted as previously described (Pediaditakis et al., 2020). Brief examples of methods are described herein. Brain-Chips were fixed with 4% paraformaldehyde in PBS for 10 min and then washed with PBS. Cells were blocked on the Brain-Chip in phosphate-buffered saline (PBS) containing 10% donkey serum (Sigma) at 4° C. overnight. […] Images were acquired with either an Olympus fluorescence microscope (IX83) or an inverted laser-scanning confocal microscope, e.g. Zeiss confocal microscope (AxiovertZ1 LSM880).

[3] = system: iPS-derived brain endothelial cells; experiment: Immunofluorescence of ZO-1 and ICAM-1 in the vascular channel of the TNF-α treated Brain-Chip; format: cell-based, human
Protocol: BBB permeability assays were done on the Brain-Chip upon exposure to TNF-α compared to the untreated group.
(§2) Morphological analysis. Immunocytochemistry, including immunofluorescence microscopy, was conducted as previously described (Pediaditakis et al., 2020). Brief examples of methods are described herein. Brain-Chips were fixed with 4% paraformaldehyde in PBS for 10 min and then washed with PBS. Cells were blocked on the Brain-Chip in phosphate-buffered saline (PBS) containing 10% donkey serum (Sigma) at 4° C. overnight. Immunostaining was performed after permeabilization in PBS with 0.1% Saponin and blocking for 30 min in 10% donkey serum in PBS with 0.1% Saponin. Immunostaining was performed with specific primary antibodies (anti-TH, anti-GFAP, anti-NG2, anti-TMEM119, anti-pSer129-αSyn, anti-Cleaved Caspase-3, anti-CD68; Abcam), (anti-MAP2, and anti-CD31; Thermo Fisher Scientific), (anti-Claudin-1, anti-Claudin-5, anti-Occludin, anti-ZO-1; Invitrogen), in a 1:100 dilution in 10% donkey serum in PBS with 0.1% Saponin and incubated overnight on the Brain-Chip at 4° C. Additional primary antibodies were MAP2 (Thermo Fisher Scientific; MA512826), VGLUT1 (Thermo Fisher Scientific; 48-2400), GFAP (Abcam; ab53554), NG2 (Abcam; ab83178), CD68 (Abcam; ab213363), ICAM-1 (R&D Systems; BBA3), ZO-1 (Thermo Fisher Scientific; 402200), GLUT1 (Thermo Fisher Scientific; SPM498). Fluorescently conjugated secondary antibodies with Alexa Fluor-488, Alexa Fluor-568, or Alexa Fluor-647 (Abcam) were then used when the primary antibodies are not conjugated, incubated in the dark for 2 hr at room temperature. Cells were then counterstained with DAPI nuclear stain. Images were acquired with either an Olympus fluorescence microscope (IX83) or an inverted laser-scanning confocal microscope, e.g. Zeiss confocal microscope (AxiovertZ1 LSM880).

[4] = system: Brain-Chip brain channel cells; experiment: Secreted cytokines (MSD V-PLEX) and glutamate in brain channel media of the TNF-α treated Brain-Chip; format: cell-based, human
Protocol: To determine whether the level of other inflammatory cytokines increases in this TNF-α model, levels of IFNγ, interleukin-1β (IL-1β) and IL-6, were measured following two days of exposure within the brain channel media. These cytokines are associated with the increase of BBB permeability.
In one embodiment, chips were seeded with human iPS-derived glutamatergic and GABAergic neurons (NeuCyte) at a density of 2×10^6 cells/mL and 0.75×10^6 cells/mL respectively, co-cultured with human primary microglia (ATCC; CRL3304) at a density of 1×10^5 cells/mL, human primary astrocytes (NeuCyte), and primary pericytes (Sciencell; 1200) at a density of 1×10^5 cells/mL, using “seeding medium” (NeuCyte), and incubated overnight. The next day, human iPS-derived Brain Microvascular Endothelial cells were seeded in the vascular channel at a density of 14-16×10^6 cells/mL using human serum-free endothelial cell medium supplemented with 5% human serum from platelet-poor human plasma (Sigma) and allowed to attach to the membrane overnight. Chips were then connected to the culture module. At this time, the medium supplying the brain channel was switched to maintenance medium (Neucyte), and the serum of the vascular medium was lowered to 2%. Chips were maintained under constant perfusion at 60 μL/hr through all chips' brain and vascular channels until day 7. Two additional commercial endothelial cell sources were used in experiments. Human primary endothelial cells (Cell Systems) and hCMEC/D3 (Millipore) were cultured in media according to the manufacturer's instructions.
as §1
ELISA analysis. The levels of IFNγ, IL-1β, and IL-6 were measured by M.S.D. 96-well plate Human Pro-Inflammatory V-PLEX Human Pro-Inflammatory Assay kits. The secreted levels of Glutamate were measured by Glutamate Assay Kit (Fluorometric) (Abcam; ab138883).

[5] = system: brain channel cells of the SN Brain-Chip (dopaminergic neurons); experiment: Immunostaining of phospho-αSyn129 / αSyn accumulation in the brain channel; format: cell-based, human; conditions: 10 mM dose, compared to cells exposed to αSyn fibrils alone
Protocol: Thus, the capability of exogenously added fibrils was accessed for accumulation and processing cells of a SN Brain-Chip. Recombinant αSyn fibrils (4 μg/mL) was added in the culture medium of the brain channel under continuous flow, on Day 2 of the culture (FIG. 57A).
After three- and six-days upon-exposure to αSyn fibrils (D5 and D8 of the experiment, respectively), the exposed chips underwent immunostaining in order to determine the abundance of phosphoSer129-alph α-synuclein (phospho-αSyn129), a post-translational modification characteristic of pathogenic αSyn species^47,48.
Addition of exogenous alpha-synuclein to brain channel. Human recombinant αSyn monomers and pre-formed fibrils were purchased from Abcam (Monomers; ab218819, Fibrils; ab218819), and were diluted in DopaNeurons Media to a final concentration of 4 μg/mL. […]
For treatment, freshly prepared monomers and fibrils were used. […] Effluents, lysates, and staining were collected/fixed at day three- and day six post-exposure (D5 and D8 respectively), and were analyzed by a microplate reader, ELISA kits, and immunofluorescence microscopy.
Morphological analysis. […] Images were acquired with either an Olympus fluorescence microscope (IX83) or an inverted laser-scanning confocal microscope, e.g. Zeiss confocal microscope (AxiovertZ1 LSM880).

[6] = system: endothelial cells of the SN Brain-Chip; experiment: Morphological analysis of tight junctions in endothelial cells in the αSyn fibril model; format: cell-based, human
Protocol: The junction protein expression of Claudin-5 was visualized by immunofluorescence staining with a Claudin-5 antibody and DAPI for cell nuclei. Scale bars: 50 μm.
as §2, with “Additional primary antibodies were MAP2 (Thermo Fisher Scientific; MA512826), VGLUT1 (Thermo Fisher Scientific; 48-2400), GFAP (Abcam; ab53554), NG2 (Abcam; ab83178), CD68 (Abcam; ab213363), ICAM-1 (R&D Systems; BBA3), ZO-1 (Thermo Fisher Scientific; 402200), GLUT1 (Thermo Fisher Scientific; SPM498). Fluorescently conjugated secondary antibodies with Alexa Fluor-488, Alexa Fluor-568, or Alexa Fluor-647 (Abcam) were then used when the primary antibodies are not conjugated, incubated in the dark for 2 hr at room temperature. Cells were then counterstained with DAPI nuclear stain.” left out

BBB in the SN Brain-Chip = experiment: Permeability assays (apparent permeability, Papp) on the SN Brain-Chip; format: cell-based, human; conditions: αSyn fibril damaged SN Brain-Chips, trehalose added via brain channel on day 5, read after 72 hours (D8)
Protocol: Thus, BBB permeability assays were measured on the SN Brain-Chip after exposure to αSyn fibrils, as compared to exposure to αSyn monomers or PBS.
Permeability Assays, e.g., evaluate the establishment and integrity of the barrier. Apparent permeability (Papp) of the barrier was calculated by following a previously described method^81. […] After 24 hrs, effluent from both channels was sampled to determine the dye's concentration (amount) that had diffused through the membrane. […] Then, the following equation was used to calculate apparent paracellular permeability (Papp) based on a standard curve and using the following formula:

HMC3 cells = conditions: 10 ng/ml, 24 h; cited from earlier work
[7] = TNF-α 100 ng/mL perfused within the brain channel, two days, vs untreated
[8] = TNF-α 100 ng/mL within the vascular channel, vs control
[9] = TNF-α 100 ng/mL in brain channel (neuroinflammation), two days, vs untreated
[10] = TNF-α perfused within the vascular channel (systemic inflammation), two days, vs untreated

TNF-α
permeability to 3 kDa dextran ([1]; TNF-α 100 ng/mL in brain channel, 24 and 48 hrs, time dependent): significantly increased permeability | permeability to 3 kDa dextran ([1]; TNF-α 100 ng/mL perfused within the vascular channel (systemic inflammation)): significantly increased permeability | transport through the BBB (apparent permeability) vs vehicle control ([1]; TNFα 100 ng/mL on the brain side, 24 hrs and 48 hrs): significantly increased by three times over the control | microglia activation (phenotypic changes, phagocytosis of latex beads) ([2]; TNF-alpha 100 ng/ml): activates microglia as shown by phenotypic changes and induction of phagocytosis | proportion of the GFAP-positive cells [2, 7]: significantly increased | proportion of the MAP2-positive cells [2, 7]: decreased | activated microglia (CD68 expression) ([2]; TNF-α 100 ng/mL, brain channel, two days of exposure): activated microglia were also observed | expression of BBB tight junction protein ZO-1 [3, 8]: significantly attenuated | expression of ICAM-1 [3, 8]: increased | ZO-1 expression ([3]; TNF-α in brain channel, 48 hrs): loss of ZO-1 | intercellular adhesion molecule 1 (ICAM-1) expression ([3]; TNF-α in brain channel, 48 hrs): excessive increase | IL-6 production, Brain chips with and without microglial cells ([4]; TNF-alpha, 24 and 48 hours): induced significant IL-6 production in both embodiments | IL-6 secreted, Brain chips including microglial cells over those without ([4]; TNF-alpha, after both 24 and 48 hours): unexpected significant increase | secreted glutamate levels (ELISA), media of the brain channel ([4]; TNF-α 100 ng/mL brain channel, two days, vs untreated): significantly higher | level of IFNγ in brain channel media [4, 9]: significantly higher | level of IL-1β in brain channel media [4, 9]: significantly higher | level of IL-6 in brain channel media [4, 9]: significantly higher | level of IL-6 in brain channel media, absence of microglia ([4]; TNF-α exposure, Brain-Chip without microglia): not stigmatically changed | level of IFNγ in brain channel media [4, 10]: significantly higher levels | level of IL-1β in brain channel media [4, 10]: significantly higher levels | level of IL-6 in brain channel media [4, 10]: significantly higher levels

OC[C@H]1O[C@H](O[C@H]2O[C@H](CO)[C@@H](O)[C@H](O)[C@H]2O)[C@H](O)[C@@H](O)[C@@H]1O [trehalose, O-α,-d-glucopyranosyl-[1→1]-α-d-glucopyranoside]
accumulation of αSyn within the cells of the brain channel [5]: diminished the accumulation of αSyn | tight junctions (ZO-1, Claudin-5) ([6]; αSyn fibril damaged SN Brain-Chips, trehalose treated, D8): rescuing damaged tight junctions | junction protein expression of ZO-1 ([6]; αSyn fibril model with or without trehalose treatment): restoration of junction protein expression of ZO-1 | BBB permeability (3 kDa dextran) (BBB in the SN Brain-Chip): significantly decreased BBB permeability

IFN-gamma: cytokine used to activate HMC3 microglia cells
markers of activated microglia MHCII, CD68 and CD11b (HMC3 cells): upregulated
